Like-named read-outs stand apart in the source and are kept apart here.
What was measured:
[1] = Protein binding by equilibrium dialysis (plasma, tissue homogenates, DPBS); format: in vitro ADME, rat; conditions: rat, plasma
Procedure: Control plasma was purchased from BioIVT, Hicksville, New York. Pooled plasma was obtained from at least three rats with K2EDTA as the anticoagulant. Control plasma was used to test the suitability of the system and for positive control analysis. Dulbecco’s phosphate-buffered saline (DPBS) (Millipore Sigma, St Louis, Missouri) was used to test the suitability of the system and as the receiver side of the dialysis device. […] The stock solution was added to the matrix (plasma or DPBS) and swirled to mix. The fortified matrix was then incubated at 37 °C for 15 min. Triplicate aliquots of the fortified matrix were analyzed by LSC.
The high throughput dialysis apparatus, model HTD96b, was used (HTDialysis LLC, Gales Ferry, Connecticut). Prior to assembly, dialysis membrane strips (molecular weight cutoff of 6–8 kDa) were hydrated, and the Teflon bars were assembled according to manufacturer’s instructions, with dialysis membrane strips laid between bars creating two compartments per well. The assembled unit was locked in place in the steel base plate. A 150 µL aliquot of each fortified matrix (tissue homogenates, plasma, or DPBS) and DPBS were added to the donor and receiver side of the HTD wells in a Teflon plate, respectively, and the plate was sealed. Samples were incubated at 37 °C and rotated at 300 rpm for 7 hours. After incubation, the seal was removed, and tissue homogenates, plasma, or DPBS and dialysate from each device insert were analyzed by LSC. All protein binding determinations were performed in triplicate.
Dialysis was performed accordingly. The radioactivity concentration of the test article in the donor and receiver samples was determined by LSC (count time 60 min) for the calculation of protein binding. […] After the designated time, aliquots of the individual donor and receiver samples were removed and analyzed by LSC. The remaining sample volume was stored at −20 °C.
Dialysis was performed accordingly.
Protein binding by equilibrium dialysis:1 PercentDrugBound=(Cm-Cd)/Cm×100 2 PercentDrugUnbound=100-PercentBound where: Cd, concentration of test article in dialysate at equilibrium; Cm, Concentration of test article in matrix at equilibrium.
Recovery from equilibrium dialysis:3 Recovery(%)=(Cm×Vm)+(Cd×Vd)/(Co×Vo)×100 where: Cm, Concentration of test article in matrix at equilibrium; Cd, Concentration of test article in dialysate at equilibrium; Co, Original concentration of test article in matrix prior to loading the dialysis device; Vm, Nominal volume of the matrix at equilibrium; Vd, Nominal volume of the dialysate at equilibrium; Vo, Nominal volume of the original matrix added to the dialysis device.

[2] = In vitro metabolism in rat hepatocytes; conditions: 5 µM A947, 3 hr
Procedure: (§1) Hepatocyte cell count was ~1.1–1.8 × 10^6 cells/mL. After 3 h, samples were quenched with 3 volumes of acetonitrile, vortex mixed, and centrifuged. The supernatant (5 µL) was analyzed by LC-MS using a Kinetex EVO C18 column (1.7 μm, 2.1 × 150 mm) at 40 °C with a flow rate of 0.4 mL/min. Mobile phase A was 20 mM ammonium acetate in water, and mobile phase B was acetonitrile. The column was initially held at 5% B for 2 min, increased to 75% B over 33 minutes, and then increased to 95% B over 3 min, where it was maintained for 3 minutes before returning to 5% B over 0.5 min for re-equilibration. Mass spectrometry data was acquired using positive ion mode and data-dependent MS^2 acquisition.

[3] = In vitro metabolism in human hepatocytes; conditions: human hepatocytes, 5 µM A947, 3 hr
Procedure: as §1

[4] = human, 3 h, 5 µM
Procedure: as §1

[5] = Metabolite profiling in rat bile, urine and feces (radio-HPLC, LC-HRMS); format: in vivo; conditions: for %rad in feces: pooled feces
Procedure: Tissue homogenate samples at 24 hours were extracted as plasma samples. […] The pooled urine samples containing 10% MeOH were analyzed by liquid chromatography-high resolution mass spectrometry (LC-HRMS).
The pooled bile sample containing 10% MeOH was analyzed by LC-HRMS.
Feces samples obtained from BDC and intact rats were pooled separately across time intervals for each animal (5% w/v) and further pooled across animals for each group to generate a 0–68 hour pooled sample. Approximately 1–2 g of each pooled feces sample was extracted as the same protocol used for plasma samples. […] The reconstituted samples were analyzed by LC-HRMS.
The reconstituted samples were analyzed by LC-HRMS, with eluent fractions collected at 10-second intervals into 96-well plates containing solid scintillant. Radioactivity in each well was determined using TopCount analysis, and radiochemical profiles were generated based on radioactivity counts. Structural elucidation was performed based on mass spectral interpretation to identify metabolites.
For metabolite profiling and identification, LC-MS analysis used a Shimadzu/Nexera LC-30 AD liquid chromatographic system and a ThermoFisher Scientific Q Exactive with a positive/negative heated electrospray interface. The column was a Waters XSelect HSS T3 4.6 mm × 250 mm, 3.5 µm and maintained at 40 °C. The mobile phases were (A) 20 mM ammonium acetate in water and (B) acetonitrile. […] The flow was 1 mL/min and split 20% to mass analysis and 80% collected for radioactivity counting. Mass spectrometry data was acquired with full scans at a resolution of 70,000 for a m/z range of 300 to 1500, and MS/MS scans were acquired at a resolution of 17,500. The mass spectrometer was operated with a normalized collision energy of 30 (ESI+), S-Lens RF level of 60, source voltage of +3.5 kV, Capillary temperature of 320 °C, and Probe heater temperature of 300 °C.

[6] = male, Wistar Han, rat, 3 h, 5 µM
Procedure: as §1

[7] = IV 4 mg/kg, pooled 0–168-hour bile
[8] = Sprague Dawley, in vivo, iv, 4 mg/kg

CC(=O)CC(c1ccccc1)c1c(O)c2ccccc2oc1=O (stereo not drawn) [14C-warfarin, warfarin, reference compound]
Percent Unbound ([1]; 7 h, 3000 ng/mL): approximately 1.5%
fraction unbound at 7 h, 3000 ng/mL ([1]; Fu): 0.015
fraction unbound at 7 h, 3000 ng/mL ([1]; Percent Unbound): 0.0146

Cc1ncsc1-c1ccc(C(C)NC(=O)C2CC(O)CN2C(=O)C(c2cc(N3CCC(C(=O)O)CC3)no2)C(C)C)cc1 (stereo not drawn) [M3]
Estimated relative distribution percent of mass spectral abundance [2]: 0.2%
Estimated relative distribution percent of mass spectral abundance [3]: 0.04%

Nc1nnc(-c2ccccc2O)cc1N1CC2CCC(C1)N2c1ccnc(O)c1 [M5]
Estimated relative distribution percent of mass spectral abundance [4]: 0.1%
%Rad in bile [5, 7]: 1.49%
%rad in feces ([5]; IV 4 mg/kg): 1.86%
%rad in urine ([5]; IV 4 mg/kg, pooled urine): 7.53%

CC(C)C(C(=O)N1CC(O)CC1C(=O)O)c1cc(N2CCC(CN3CCC(OC4CC(Oc5cc(N6C7CCC6CN(c6cc(-c8ccccc8O)nnc6N)C7)ccn5)C4)CC3)CC2)no1 (stereo not drawn) [M8]
%Rad in bile [5, 8]: 3.47%

CC(C)C(C(=O)O)c1cc(N2CCC(CN3CCC(OC4CC(Oc5cc(N6C7CCC6CN(c6cc(-c8ccccc8O)nnc6N)C7)ccn5)C4)CC3)CC2)no1 (stereo not drawn) [M9]
%Rad in bile [5, 8]: 3.08%

Nc1nnc(-c2ccccc2O)cc1N1CC2CCC(C1)N2c1ccnc(OC2CC(OC3CCNCC3)C2)c1 (stereo not drawn) [M10]
Estimated relative distribution percent of mass spectral abundance [4]: 2.6%
Estimated relative distribution percent of mass spectral abundance [6]: 2.2%
%Rad in bile [5, 7]: 4.48%

Nc1nnc(-c2ccccc2O)cc1N1CC2CCC(C1)N2c1ccnc(OC2CC(O)C2)c1 (stereo not drawn) [M11]
Estimated relative distribution percent of mass spectral abundance [4]: 0.8%
Estimated relative distribution percent of mass spectral abundance [6]: 0.8%
%Rad in bile [5, 7]: 2.79%
%rad in feces ([5]; IV 4 mg/kg): 4.34%
%rad in urine ([5]; IV 4 mg/kg, pooled urine): 2.93%

Cc1ncsc1-c1ccc(C(C)NC(=O)C2CC(OC3OC(C(=O)O)C(O)C(O)C3O)CN2C(=O)C(c2cc(N3CCC(CN4CCC(OC5CC(Oc6cc(N7C8CCC7CN(c7cc(-c9ccccc9OC9OC(C(=O)O)C(O)C(O)C9O)nnc7N)C8)ccn6)C5)CC4)CC3)no2)C(C)C)cc1 (stereo not drawn) [M17]
%rad in urine [5, 8]: 21.86%

Nc1nnc(-c2ccccc2O)cc1N1CC2CCC(C1)N2c1ccnc(OC2CC(OC3CCN(C=O)CC3)C2)c1 (stereo not drawn) [M18]
%Rad in bile [5, 8]: 6.31%

Source: article PMC11099041, “Tissue distribution and retention drives efficacy of rapidly clearing VHL-based PROTACs” (Communications Medicine, 2024)
